Laboratory results reported in patent publication US6130053A, “Method for selecting compounds for inhibition of neoplastic lesions” (priority 1999, dated 2000).
Entries after “also recorded” stand apart in the source; their conditions may differ. Where two headings read alike, the source gives them in different places.

How the values were obtained:
[1] = test system: premalignant lesions in mammary gland organ culture; assay: Inhibition of premalignant lesions in mammary gland organ culture; type: cell-based, mouse; settings: FIG. 17
Procedure: Test compounds identified by the above methods can be tested for antineoplastic activity by their ability to inhibit the incidence of preneoplastic lesions in a mammary gland organ culture system.
For example, female BALB/c mice can be treated with a combination of estradiol and progesterone daily, in order to prime the glands to be responsive to hormones in vitro. The animals are sacrificed and thoracic mammary glands are excised aseptically and incubated for ten days in growth media supplemented with insulin, prolactin, hydrocortisone, and aldosterone. DMBA (7,12-dimethylbenz(a)anthracene) is added to medium to induce the formation of premalignant lesions. Fully developed glands are then deprived of prolactin, hydrocortisone, and aldosterone, resulting in the regression of the glands but not the premalignant lesions.
The test compound is dissolved in DMSO and added to the culture media for the duration of the culture period. At the end of the culture period, the glands are fixed in 10% formalin, stained with alum carmine, and mounted on glass slides. […]
The extent of the area occupied by the mammary lesions can be quantitated by projecting an image of the gland onto a digitation pad. […] The space covered by each of the unregressed structures is also outlined on the digitization pad and quantitated by the computer.

cGMP PDE = cGMP PDE inhibition assay, enzyme purified from HT-29 cultured tumor cells; type: biochemical, human
Procedure: The mixture is incubated at 30° C. for 10 minutes with isolated PDE of this invention. Reactions are terminated, for example, by boiling the reaction mixture for 75 seconds. After cooling on ice, 100 μl of 0.5 mg/ml snake venom (O. Hannah venom available from Sigma) is added and incubated for 10 minutes at 30° C. This reaction is then terminated by the addition of an alcohol, e.g. 1 ml of 100% methanol. Assay samples are applied to 1 ml Dowex 1-X8 column; and washed with 1 ml of 100% methanol. The amount of radioactivity in the breakthrough and the wash from the column is combined and measured with a scintillation counter. The degree of phosphodiesterase inhibition is determined by calculating the amount of radioactivity in drug-treated reactions and comparing against a control sample (a reaction mixture lacking the tested compound but with drug solvent).

HT-29 cells = assay: Growth inhibition of HT-29 cells; type: cell-based, human
[2] = test system: PDE peak B (novel cGMP-specific phosphodiesterase); assay: Inhibition of cGMP hydrolysis by PDE peak B (novel cGMP-specific PDE) from SW480 cells; type: biochemical, human; settings: for Km: absence of cAMP
PDE peak A (PDE5) = molecular target: T1, PDE peak A (PDE5) (Homo sapiens, UniProt O76074); assay: Inhibition of cGMP hydrolysis by PDE peak A from SW480 cells; type: biochemical
T1 construct: approximately four hundred million SW480 cells at confluence were scraped; endogenous in cells; host or cells: SW480 human colon adenocarcinoma cells (DEAE-Trisacryl M fraction)

[3] = test system: SW-480 colon adenocarcinoma cells; assay: Apoptosis inducing activity, fold induction (fold stimulation, DNA fragmentation ELISA); settings: for fold induction at 100 µM: Homo sapiens, SW480, read-out: Fold induction of apoptosis at 100 μM, 100 μM
[4] = molecular target: T2, COX-I (purified cyclooxygenase Type 1) (Ovis aries, UniProt P05979); assay: COX inhibition assay, purified cyclooxygenase (Type 1); type: biochemical, ram; settings: for COX-I inhibition: FIG. 5
T2 construct: purified cyclooxygenase from ram seminal vesicles; from tissue; host or cells: ram seminal vesicles
T2 sequence (P05979 25-600): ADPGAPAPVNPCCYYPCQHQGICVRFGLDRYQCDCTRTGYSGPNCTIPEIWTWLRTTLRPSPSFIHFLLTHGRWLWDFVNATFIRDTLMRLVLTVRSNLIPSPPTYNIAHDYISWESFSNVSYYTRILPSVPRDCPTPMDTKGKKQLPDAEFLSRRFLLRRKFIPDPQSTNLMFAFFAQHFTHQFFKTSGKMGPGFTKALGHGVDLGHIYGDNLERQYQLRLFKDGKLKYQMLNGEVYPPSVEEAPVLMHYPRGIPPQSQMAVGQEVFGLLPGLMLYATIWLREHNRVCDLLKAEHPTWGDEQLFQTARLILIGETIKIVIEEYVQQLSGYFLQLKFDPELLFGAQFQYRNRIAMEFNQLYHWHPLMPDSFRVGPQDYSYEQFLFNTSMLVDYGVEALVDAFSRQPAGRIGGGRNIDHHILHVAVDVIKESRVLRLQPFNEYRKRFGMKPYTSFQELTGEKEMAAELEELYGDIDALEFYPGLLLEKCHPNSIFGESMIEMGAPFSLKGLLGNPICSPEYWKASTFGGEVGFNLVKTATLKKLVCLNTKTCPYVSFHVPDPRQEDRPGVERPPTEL

[5] = test system: PDE peak B (novel cGMP-specific phosphodiesterase); settings: cited from earlier work
native bovine PDE5 = settings: read-out: Kd (cGMP binding, native bovine PDE5); cited from earlier work
[6] = test system: [H][C@@]12COP(=O)(O)O[C@@]1([H])[C@@H](O)[C@H](n1cnc3c(=O)[nH]c(N)nc31)O2; assay: purified protein, by the assay type; settings: 30.0 °C
HT-29 cells (cAMP level) = assay: cAMP production in cultured HT-29 cells (radioimmunoassay); type: cell-based, human; settings: 30 minutes
[7] = Homo sapiens, HT-29; read-out: Growth % Inhibition at 100 μM

CC1=C(CC(=O)O)c2cc(F)ccc2/C1=C\c1ccc([S+](C)[O-])cc1 (stereo not shown) [sulindac]
inhibition of premalignant lesions [1]: effectively inhibit the formation of premalignant lesions

CC1=C(CC(=O)O)c2cc(F)ccc2/C1=C\c1ccc(Cl)cc1 [Compound C, (Z)-5-Fluoro-2-methyl-1-(p-chlorobenzylidene)-3-acetic acid]
cGMP PDE % Inhibition at 10 μM (cGMP PDE): < 25%
inhibition at 100 µM (HT-29 cells; [7]): 80%

COc1cc(/C=C2/C(C)=C(CC(=O)NCc3ccccc3)c3cc(F)ccc32)cc(OC)c1OC [Compound E, (Z)-5-Fluoro-2-methyl-1-(3,4,5-trimethoxybenzylidene)-3-indenylacetamide, N-benzyl]
mode of inhibition of peak B [2]: competitively inhibited
mode of inhibition of peak A (PDE peak A (PDE5)): competitively inhibited
apoptosis-inducing or growth-inhibiting properties ([3]; neoplastic cells): precisely the opposite
COX-I inhibition [4]: neither test compound B and E significantly inhibit COX-I

CCCc1nn(C)c2c(=O)[nH]c(-c3cc(S(=O)(=O)N4CCN(C)CC4)ccc3OCC)nc12 [Sildenafil]
effect on new cGMP-specific PDE (words, '375 application) [5]: little relative effect
inhibition of peak A activity (PDE peak A (PDE5)): inhibited activity of peak A

CCOC(=O)C1=C[C@]2(CC)CCCN3CCc4c(n1c1ccccc41)[C@@H]32 [Vinpocetine]
sensitivity of peak B / novel PDE to inhibitor [2]: insensitive

Nc1nc2c(ncn2[C@@H]2O[C@@H]3COP(=O)(O)O[C@H]3[C@H]2O)c(=O)[nH]1 [cGMP, cyclic guanosine 3',5'-monophosphate]
Km ([2]; read-out: Km of peak B for cGMP (increasing slope)): < 1 µM
Km ([2]; read-out: apparent Km of peak B for cGMP (first, decreasing part of Eadie-Hofstee plot)): 8.4 µM
Kd (native bovine PDE5): 1.3 µM

PDE peak A (PDE5) (Homo sapiens)
Km [6]: 1.07 µM
Vmax [6]: 0.16 nmol/min/mg

COc1ccc(C2CNC(=O)C2)cc1OC1CCCC1 (stereo not shown) [Rolipram]
sensitivity of peak B / novel PDE to inhibitor [2]: insensitive
effect on cAMP level (HT-29 cells (cAMP level)): increased cAMP

CCCOc1ccccc1-c1nc2nn[nH]c2c(=O)[nH]1 [Zaprinast]
sensitivity of peak B / novel PDE to inhibitor [2]: reduced sensitivity to inhibition; also recorded: zaprinast-insensitive

Clc1cccc(Nc2nnc(-c3ccccc3)c3ccccc23)c1 [MY5445, 1-(3-chloroanilino)-4-phenyphthalazine]
inhibition at 100 µM [4]: 94%

COc1cc(/C=C2/C(C)=C(CC(=O)O)c3cc(F)ccc32)cc(OC)c1OC [B, (Z)-5-Fluoro-2-methyl-1-(3,4,5-trimethoxybenzylidene)-3-acetic acid]
cGMP PDE % Inhibition at 10 μM (cGMP PDE): < 25%
cGMP PDE inhibition at 20 μM (cGMP PDE; 20 μM, FIG. 8): greater than 50%
fold induction at 100 µM [3]: 3.4
COX-I inhibition [4]: neither test compound B and E significantly inhibit COX-I

CCN(CC)CCSC12CC(=O)OC1(C)/C(=C/c1ccc(S(C)(=O)=O)cc1)c1ccc(F)cc12 (racemic) [A, rac-threo-(E)-1-(N,N'-diethylaminoethanethio)-1-(butan-1',4'-olido)-[3',4':1,2]-6-fluoro-2-methyl-3-(p-methylsulfonylbenzylidene)-indan]
cGMP PDE % Inhibition at 10 μM (cGMP PDE): < 25%
fold induction at 100 µM [3]: < 2
inhibition at 100 µM [4]: < 25%
inhibition at 100 µM (HT-29 cells; [7]): 68%

O=C(O)C1CCN(c2nc(NCc3ccc4c(c3)OCO4)c3cc(Cl)ccc3n2)CC1 [Compound E4021]
inhibition at 100 µM (HT-29 cells; Homo sapiens, HT-29, read-out: Growth % Inhibition at 100 μM): < 50%

CC1(C)C(=O)Nc2ccc(C3=NNC(=O)CC3)cc21 [Indolidan]
sensitivity of peak B / novel PDE to inhibitor [2]: insensitive

CC(=O)NC(CSC12CC(=O)OC1(C)/C(=C/c1ccc(S(C)(=O)=O)cc1)c1ccc(F)cc12)C(=O)O (racemic) [D, rac-(E)-1-(butan-1',4'-olido)-[3',4':1,2]-6-fluoro-2-methyl-3-(p-methylsulfonylbenzylidene)-1S-indanyl-N-acetylcysteine]
inhibition at 100 µM [4]: < 25%
inhibition at 100 µM (HT-29 cells; [7]): 78%

CCCCCC[C@H]([C@H](C)O)n1cnc2c(N)ncnc21 (relative stereo) [EHNA]
IC50 ([2]; cGMP hydrolysis, 0.25 μM 3H-cGMP): 3.7 µM
IC50 (PDE peak A (PDE5)): > 100 µM
fold induction at 100 µM [3]: < 2
